The source of these data is patent publication US20090215742A1, “AMIDE […]” (PFIZER, INC., priority 2005, published 2009).

The assay deals with T1, HSP-90 (Homo sapiens, UniProt P07900).
T1 construct: fused on or other part: 6-His tag at the C-terminus
The experiment in a line: HSP-90 SPA (scintillation proximity assay) competition binding assay, displacement of tritiated propyl-Geldanamycin. The note with it: for inhibition at 1 µM: read-out: % inhibition @ 1 μM; for inhibition at 10 µM: read-out: % inhibition @ 10 μM.

The inhibition is the change of the read-out against control, counted positive when it falls. In the case of `O=C(c1ccc(O)cc1O)N1CCSCC1` [Example 133, 4-(thiomorpholin-4-ylcarbonyl)benzene-1,3-diol], the inhibition at 1 µM was found to be 42.6% and the inhibition at 10 µM was 80%.
On to `O=C(c1ccc(O)cc1O)N1CCN(c2cnccn2)CC(CO)C1` (stereo not shown) [Example 124, 4-{[6-(hydroxymethyl)-4-pyrazin-2-yl-1,4-diazepan-1-yl]carbonyl}benzene-1,3-diol], for which the inhibition at 1 µM was -4.8% and the inhibition at 10 µM was 18.1%.
As for `O=C(c1cccc2cccnc12)N1Cc2ccccc2C1` [Example 187, 8-(1,3-dihydro-2H-isoindol-2-ylcarbonyl) quinoline], the inhibition at 1 µM worked out at 0%.
For `COCc1nccc(C2CCCN(C(=O)c3ccc(O)cc3O)C2)n1` (stereo not shown) [Example 64, 4-({3-[2-(methoxymethyl)pyrimidin-4-yl]piperidin-1-yl}carbonyl)benzene-1,3-diol], the inhibition at 1 µM is 5.9% and the inhibition at 10 µM was 59.2%.
On to `O=C(c1ccc(O)cc1O)N1CCC(c2ccc(F)cc2)C1` (stereo not shown) [Example 95, 4-{[3-(4-fluorophenyl)pyrrolidin-1-yl]carbonyl}benzene-1,3-diol], for which the inhibition at 1 µM came out at 22.7% and the inhibition at 10 µM worked out at 70.3%.
For `CN(Cc1ccc(Cl)cc1)C(=O)c1ccc(O)cc1O` [Example 106, N-(4-chlorobenzyl)-2,4-dihydroxy-N-methylbenzamide], in that order: 26.9% and 72.4%.
As for `COc1ccccc1OC1CCN(C(=O)c2ccc(O)cc2O)CC1` [Example 72, 4-{[4-(2-methoxyphenoxy)piperidin-1-yl]carbonyl}benzene-1,3-diol], the inhibition at 1 µM came to 13.2% and the inhibition at 10 µM turned out to be 62.4%.
For `O=C1CCCN1Cc1nnc2n1CCN(C(=O)c1ccc(O)cc1O)CC2` [Example 91, 1-{[7-(2,4-dihydroxybenzoyl)-6,7,8,9-tetrahydro-5H-[1,2,4]triazolo[4,3-d][1,4]diazepin-3-yl]methyl}pyrrolidin-2-one], in that order: -7.3% and 12.2%.
For `Cc1cccc(N2CCN(C(=O)c3ccc(O)cc3O)CC2)n1` [Example 101, 4-{[4-(6-methylpyridin-2-yl)piperazin-1-yl]carbonyl}benzene-1,3-diol], the inhibition at 1 µM was determined as 21.8% and the inhibition at 10 µM stood at 70.2%.
For `O=C(c1ccc(O)cc1O)N1CCCC(CCOc2ccccc2)C1` (stereo not shown) [Example 55, 4-{[3-(2-phenoxyethyl)piperidin-1-yl]carbonyl}benzene-1,3-diol], in that order: 77.4% and 87%.
In the case of `O=C(c1ccc(O)cc1O)N1CCC(O)(c2ccc(Cl)cc2)CC1` [Example 76, 4-{[4-(4-chlorophenyl)-4-hydroxypiperidin-1-yl]carbonyl}benzene-1,3-diol], the inhibition at 1 µM worked out at 48.4% and the inhibition at 10 µM was 81%.
For `COc1cc(C2=NOC3(COCCN(C(=O)c4ccc(O)cc4O)C3)C2)ccc1F` (stereo not shown) [Example 129, 4-{[3-(4-fluoro-3-methoxyphenyl)-1,7-dioxa-2,10-diazaspiro[4.6]undec-2-en-10-yl]carbonyl}benzene-1,3-diol], in that order: 60.5% and 88.5%.
For the compound `CC(C)(C)CC1CCCCN1C(=O)c1ccc(O)cc1O` (stereo not shown) [Example 41, 4-{[2-(2,2-dimethylpropyl)piperidin-1-yl]carbonyl}benzene-1,3-diol], the inhibition at 1 µM was found to be 64.8% and the inhibition at 10 µM is 86.8%.
For `COc1ccccc1-c1nnc(CN(C)C(=O)c2ccc(O)cc2O)o1` [Example 118, 2,4-Dihydroxy-N-{[5-(2-methoxyphenyl)-1,3,4-oxadiazol-2-yl]methyl}-N-methylbenzamide], in that order: 15.4% and 57%.
For `COc1ccc(CCN(C)C(=O)c2ccc(O)cc2O)cc1OC` [Example 102, N-[2-(3,4-dimethoxyphenyl)ethyl]-2,4-dihydroxy-N-methylbenzamide], in that order: 9.8% and 54.4%.
For `O=C(c1cc(-c2ccncn2)ccc1O)N1Cc2ccccc2C1` [Example 32, 2-(1,3-dihydro-2H-isoindol-2-ylcarbonyl)-4-pyrimidin-4-ylphenyl], in that order: -11.9% and 14.2%.
`C[C@@H](c1ccccc1)N(C)C(=O)c1ccc(O)cc1O` [Example 66, 2,4-dihydroxy-N-methyl-N-(1-phenylethyl)benzamide]: the inhibition at 1 µM was determined as 55.5% and the inhibition at 10 µM was 84.8%.
`C[C@H](c1cccc2ccccc12)N(C)C(=O)c1ccc(O)cc1O` [Example 81, 2,4-dihydroxy-N-methyl-N-[1-(1-naphthyl)ethyl]benzamide]: the inhibition at 1 µM turned out to be 29% and the inhibition at 10 µM was 73.8%.
For `O=C(c1cc(-c2ccc(F)cc2F)ccc1O)N1Cc2ccccc2C1` [Example 28, 3-(1,3-dihydro-2H-isoindol-2-ylcarbonyl)-2′,4′-difluorobiphenyl-4-ol] the same measures were 50.8% and 76.2%.
For the compound `O=C(c1ccc(O)cc1O)N1CCC(CCc2ccccc2)CC1` [Example 49, 4-{[4-(2-phenylethyl)piperidin-1-yl]carbonyl}benzene-1,3-diol], the inhibition at 1 µM is 61.2% and the inhibition at 10 µM came out at 86.3%.
For `COc1ccc(F)c(C2=NOC3(COCCN(C(=O)c4ccc(O)cc4O)C3)C2)c1` (stereo not shown) [Example 132, 4-{[3-(2-fluoro-5-methoxyphenyl)-1,7-dioxa-2,10-diazaspiro[4.6]undec-2-en-10-yl]carbonyl}benzene-1,3-diol] the same measures were 33.3% and 73.9%.
Regarding `O=C(c1ccc(O)cc1O)N1CCC(CCc2cnccn2)CC1` [Example 47, 4-{[4-(2-pyrazin-2-ylethyl)piperidin-1-yl]carbonyl}benzene-1,3-diol], the inhibition at 1 µM is 43.4% and the inhibition at 10 µM came out at 80%.
In the case of `Cc1ccccc1C1(O)CCN(C(=O)c2ccc(O)cc2O)C1` (stereo not shown) [Example 100, 4-{[3-hydroxy-3-(2-methylphenyl)pyrrolidin-1-yl]carbonyl}benzene-1,3-diol], the inhibition at 1 µM amounted to 35.9% and the inhibition at 10 µM was 79.1%.
As to `O=C(c1ccc(CO)cc1)N1Cc2ccccc2C1` [Example 184, [4-(1,3-dihydro-2H-isoindol-2-ylcarbonyl)phenyl] methanol], the inhibition at 10 µM came out at 0%.
As for `CCc1nc(COCC2CCN(C(=O)c3ccc(O)cc3O)C2)no1` (stereo not shown) [Example 58, 4-[(3-{[(5-ethyl-1,2,4-oxadiazol-3-yl)methoxy]methyl}pyrrolidin-1-yl)carbonyl]benzene 1,3-diol], the inhibition at 1 µM amounted to 29.3% and the inhibition at 10 µM worked out at 72.5%.
Turning to `CN(C(=O)c1ccc(O)cc1O)[C@H]1CCCC[C@@H]1O` [Example 45, 2,4-dihydroxy-N-(2-hydroxycyclohexyl)-N-methylbenzamide], the inhibition at 1 µM worked out at 9.6% and the inhibition at 10 µM amounted to 38.3%.
As for `CCOC(=O)C1CCCN(C(=O)c2ccc(O)cc2O)C1` (stereo not shown) [Example 52, ethyl 1-(2,4-dihydroxybenzoyl)piperidine-3-carboxylate], the inhibition at 1 µM was found to be 39.1% and the inhibition at 10 µM was 80.2%.
For the compound `O=C(c1ccc(O)cc1O)N1CCOCC2(CC(c3cc(F)cc(F)c3)=NO2)C1` (stereo not shown) [Example 128, 4-{[3-(3,5-difluorophenyl)-1,7-dioxa-2,10-diazaspiro[4.6]undec-2-en-10-yl]carbonyl}benzene-1,3-diol], the inhibition at 1 µM turned out to be 31.2% and the inhibition at 10 µM amounted to 73.1%.
Consider `O=C(c1ccc(O)cc1O)N1CCC2(CC1)OCc1ccccc12` [Example 80, 4-(1′H,3H-spiro[2-benzofuran-1,4′-piperidin]-1′-ylcarbonyl)benzene-1,3-diol], for which the inhibition at 1 µM is 42% and the inhibition at 10 µM was 81.3%.
For `O=C(c1ccc(O)cc1O)N1CCC(Oc2ccc(Cl)cc2)CC1` [Example 68, 4-{[4-(4-chlorophenoxy)piperidin-1-yl]carbonyl}benzene-1,3-diol], in that order: 37.2% and 78.6%.
For the compound `CN(Cc1nc2ccccc2o1)C(=O)c1ccc(O)cc1O` [Example 123, N-(1,3-benzoxazol-2-ylmethyl)-2,4-dihydroxy-N-methylbenzamide], the inhibition at 1 µM was determined as 25.5% and the inhibition at 10 µM is 65.6%.
On to `O=C(c1ccc(O)cc1O)N1CCCN(c2nc3cc(Cl)ccc3o2)CC1` [Example 88, 4-{[4-(5-chloro-1,3-benzoxazol-2-yl)-1,4-diazepan-1-yl]carbonyl}benzene-1,3-diol], for which the inhibition at 1 µM stood at 4.3% and the inhibition at 10 µM is 42.9%.
For `O=C(c1ccc(O)cc1O)N1CCN(c2cnccn2)CC1` [Example 111, 4-[(4-pyrazin-2-ylpiperazin-1-yl)carbonyl]benzene-1,3-diol], the inhibition at 1 µM is 5.9% and the inhibition at 10 µM amounted to 64.2%.
For `COc1ccccc1-c1nnc([C@H]2CCCN2C(=O)c2ccc(O)cc2O)o1` [Example 92, 4-({2-[5-(2-methoxyphenyl)-1,3,4-oxadiazol-2-yl]pyrrolidin-1-yl}carbonyl)benzene-1,3-diol] the same measures were 9% and 22.4%.
For `O=C(c1ccc(O)cc1O)N1CCOC(COc2cccc(Cl)c2)C1` (stereo not shown) [Example 110, 4-({2-[(3-chlorophenoxy)methyl]morpholin-4-yl}carbonyl)benzene-1,3-diol] the same measures were 55.3% and 82.8%.
For `C[C@H]([C@@H](O)c1ccccc1)N(C)C(=O)c1ccc(O)cc1O` [Example 53, 2,4-dihydroxy-N-(2-hydroxy-1-methyl-2-phenylethyl)-N-methylbenzamide] the same measures were -7.8% and 7.3%.
